Measurements reported in patent US20130345418A1, “PROCESS FOR PURIFICATION OF APREPITANT” (HETERO DRUGS LIMITED, priority 2006, published 2013).
Like-named read-outs stand apart in the source and are kept apart here.

Key:
[1] = aprepitant produced by the processes described in the prior art; cited from earlier work
[2] = mean particle size of aprepitant; format: physicochemical; settings: crystallized from ethyl acetate (Example 1)
[3] = dissolution rate of amorphous versus crystalline aprepitant; format: physicochemical; settings: compared with the known crystalline aprepitant

mean particle size [2] | SMILES | mean particle size [1] | dissolution rate [3]
4.95 microns | C[C@@H](O[C@H]1OCCN(Cc2n[nH]c(=O)[nH]2)[C@H]1c1ccc(F)cc1)c1cc(C(F)(F)F)cc(C(F)(F)F)c1 [aprepitant, 5-[[(2R,3S)-2-[(1R)-1-[3,5-bis(trifluoromethyl)phenyl]ethoxy]-3-(4-fluorophenyl)-4-morpholinyl]methyl]-1,2-dihydro-3H-1,2,4-triazol-3-one] | about 12 microns | 
 | C[C@@H](O[C@H]1OCCN(Cc2n[nH]c(=O)[nH]2)[C@H]1c1ccc(F)cc1)c1cc(C(F)(F)F)cc(C(F)(F)F)c1 [amorphous aprepitant, 5-[[(2R,3S)-2-[(1R)-1-[3,5-bis(trifluoromethyl)phenyl]ethoxy]-3-(4-fluorophenyl)-4-morpholinyl]methyl]-1,2-dihydro-3H-1,2,4-triazol-3-one] |  | better dissolution rate than the known crystalline aprepitant
